Measurements taken from article PMC12203311, “Design, synthesis, in silico and in vitro evaluation of pyrrole–indole hybrids as dual tubulin and aromatase inhibitors with potent anticancer activities” (RSC Advances, 2025).

Tests used:
HL-60 (TB) = assay: NCI60 five-dose screen; assay type: cell-based; settings: Homo sapiens, leukemia; for CC50: read-out: LC50 (the source's name)
HOP-62 = assay: NCI60 five-dose screen; assay type: cell-based; settings: Homo sapiens, HOP-62, NSC lung cancer; for CC50: read-out: LC50 (the source's name)
porcine brain tubulin = biological target: T1, porcine brain tubulin (Sus scrofa, UniProt P02550+P02554); assay: Tubulin polymerisation assay (fluorescence-based); assay type: biochemical; settings: 10 µM, 37 °C
T1 construct: a solution containing porcine brain tubulin (2 mg mL^−1); purchased Cytoskeleton BK011P; host or cells: porcine brain (tissue-purified)
T1 sequence (P02554 whole entry): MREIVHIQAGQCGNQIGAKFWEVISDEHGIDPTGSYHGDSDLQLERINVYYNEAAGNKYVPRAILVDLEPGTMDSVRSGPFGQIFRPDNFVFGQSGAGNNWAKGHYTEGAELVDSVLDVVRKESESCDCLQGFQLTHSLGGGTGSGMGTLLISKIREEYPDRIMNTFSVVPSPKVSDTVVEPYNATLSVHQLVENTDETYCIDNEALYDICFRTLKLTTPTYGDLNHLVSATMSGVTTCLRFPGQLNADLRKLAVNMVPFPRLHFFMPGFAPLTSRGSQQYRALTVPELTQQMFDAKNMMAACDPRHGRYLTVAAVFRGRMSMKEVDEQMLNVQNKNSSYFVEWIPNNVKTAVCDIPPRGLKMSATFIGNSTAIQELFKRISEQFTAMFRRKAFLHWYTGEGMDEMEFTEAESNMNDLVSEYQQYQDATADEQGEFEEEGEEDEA
T1 sequence (P02550 whole entry): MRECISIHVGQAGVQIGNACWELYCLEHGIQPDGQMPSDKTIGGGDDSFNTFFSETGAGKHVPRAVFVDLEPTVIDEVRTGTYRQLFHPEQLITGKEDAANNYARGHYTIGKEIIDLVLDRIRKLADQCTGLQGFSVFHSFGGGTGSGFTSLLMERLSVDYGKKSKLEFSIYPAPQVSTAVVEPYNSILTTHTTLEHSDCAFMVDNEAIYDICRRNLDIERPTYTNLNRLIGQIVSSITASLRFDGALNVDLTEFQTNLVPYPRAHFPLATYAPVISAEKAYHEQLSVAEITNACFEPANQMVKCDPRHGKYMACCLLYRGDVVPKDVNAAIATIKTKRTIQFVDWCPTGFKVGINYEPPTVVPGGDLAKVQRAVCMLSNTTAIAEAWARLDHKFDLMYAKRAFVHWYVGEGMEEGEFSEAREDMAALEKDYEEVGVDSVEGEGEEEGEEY
Description: The tubulin polymerisation experimental protocol followed the method described in this literature.[28] The experimental was using fluorescence-based assay kit (Cytoskeleton, catalog no. BK011P). In Brief, 5 µL of test compounds was added to a 96-well plate, then mix with 50 µL of a solution containing porcine brain tubulin (2 mg mL^−1) in buffer with 20% glycerol and 1 mM GTP. A microplate reader (Varioskan™ LUX multimode microplate reader, Thermo Scientific™) was used to measure fluorescence intensity every 60 seconds for 60 minutes, with excitation at 360 nm and emission at 450 nm, maintained at 37 °C throughout the experiment.

COLO 205 = assay: NCI60 five-dose screen; assay type: cell-based, human; settings: Homo sapiens; for CC50: COLO 205, COLO 205, colon cancer, read-out: LC50 (the source's name); for GI50: COLO 205, colon cancer
NCI-H460 = assay: NCI60 five-dose screen; assay type: cell-based; settings: Homo sapiens, NCI-H460, NSC lung cancer; for CC50: read-out: LC50 (the source's name)
RXF 393 = assay: NCI60 five-dose screen; assay type: cell-based; settings: Homo sapiens, RXF 393, renal cancer; for CC50: read-out: LC50 (the source's name)
SR = assay: NCI60 five-dose screen; assay type: cell-based; settings: Homo sapiens, leukemia; for CC50: read-out: LC50 (the source's name)
SK-MEL-28 = assay: NCI60 five-dose screen; assay type: cell-based; settings: Homo sapiens, SK-MEL-28, melanoma; for CC50: read-out: LC50 (the source's name)
NCI-H23 = assay: NCI60 five-dose screen; assay type: cell-based; settings: Homo sapiens, NCI-H23, NSC lung cancer; for CC50: read-out: LC50 (the source's name)
CAKI-1 = assay: NCI60 five-dose screen; assay type: cell-based; settings: Homo sapiens, CAKI-1, renal cancer; for CC50: read-out: LC50 (the source's name)
[1] = test system: NCI60 human cancer cell line panel; assay: NCI60 five-dose screen, ranges over the panel; assay type: cell-based; settings: HL-60 (TB), K-562, SR, NCI-H460, COLO 205, HCC-2998, HT29, SK-MEL-5, OVCAR-8, read-out: LC50 values (range over named cell lines)

| SMILES | GI50 (HL-60 (TB)) [µM] | CC50 (HL-60 (TB)) [µM] | GI50 (HOP-62) [µM] | CC50 (HOP-62) [µM] | tubulin inhibition (porcine brain tubulin) | CC50 (COLO 205) [µM] | GI50 (COLO 205) [µM] | GI50 (NCI-H460) [µM] | CC50 (NCI-H460) [µM] | GI50 (RXF 393) [µM] | CC50 (RXF 393) [µM] | GI50 (SR) [µM] | CC50 (SR) [µM] | GI50 (SK-MEL-28) [µM] | CC50 (SK-MEL-28) [µM] | GI50 (NCI-H23) [µM] | CC50 (NCI-H23) [µM] | GI50 (CAKI-1) [µM] | CC50 (CAKI-1) [µM] | RFU in tubulin polymerization assay (porcine brain tubulin) [arbitrary units] | further results |
| --- | --- | --- | --- | --- | --- | --- | --- | --- | --- | --- | --- | --- | --- | --- | --- | --- | --- | --- | --- | --- | --- |
| O=C(N/N=C/c1cc([N+](=O)[O-])c[nH]1)c1[nH]c2ccc(Br)cc2c1-c1ccccc1 [Derivative 3q, (E)-5-Bromo-N′-((4-nitro-1H-pyrrol-2-yl)methylene)-3-phenyl-1H-indole-2-carbohydrazide] | 0.633 | > 100 | 1.26 | > 100 | no tubulin inhibition properties | > 100 | 1.28 | 0.328 | > 100 | 0.734 | > 100 | 0.405 | > 100 | 0.89 | > 100 | 2.57 | > 100 | 0.53 | > 100 |  |  |
| CCc1cc[nH]c1/C=N/NC(=O)c1[nH]c2ccc(Br)cc2c1-c1ccccc1 [Derivative 3u, (E)-5-Bromo-N′-((3-ethyl-1H-pyrrol-2-yl)methylene)-3-phenyl-1H-indole-2-carbohydrazide] | 2.03 | 24.3 | 3.77 | 45.8 | weak tubulin inhibitors | 41.3 | 2.96 | 1.23 | 36.7 | 1.19 | 18.7 | 2.02 | > 100 | 3.46 | 40.1 | 2.66 | 38.3 | 6.04 | 45.3 |  |  |
| CCc1ccc(/C=N/NC(=O)c2[nH]c3ccc(Br)cc3c2-c2ccccc2)[nH]1 [Derivative 3s, (E)-5-Bromo-N′-((5-ethyl-1H-pyrrol-2-yl)methylene)-3-phenyl-1H-indole-2-carbohydrazide] | 0.235 | > 100 | 0.861 | 46.2 |  | 26.1 | 0.316 | 0.396 | 43.5 | 0.194 | 28.9 | 0.419 | > 100 | 0.979 | 49.8 | 0.484 | 42.6 | 1.04 | 56.2 | ~55 |  |
| O=C(N/N=C/c1cc(Cl)c[nH]1)c1[nH]c2ccc(Br)cc2c1-c1ccccc1 [Derivative 3h, (E)-5-Bromo-N′-((4-chloro-1H-pyrrol-2-yl)methylene)-3-phenyl-1H-indole-2-carbohydrazide] | 0.185 | 0.886 | 0.408 | 34.7 |  | 1.88 | 0.251 | 0.281 | 9.24 | 0.219 | 34.3 | 0.179 | 4.6 | 0.582 | 47.9 | 0.317 | 36.5 | 0.253 | 27.5 | ~40 | CC50 [1]: 0.8 to 7.2 µM |
